From patent publication US11000568B2, “Means and methods for treating copper-related diseases” (HELMHOLTZ ZENTRUM MÜNCHEN—DEUTSCHES FORSCHUNGSZENTRUM FÜR …, priority 2015, dated 2021)
Entries after “also recorded” stand apart in the source; their conditions may differ. Structures can show the parent of a compound that is named as a salt.

Experiments:
LPP−/− livers = test: Two hour LPP−/− liver perfusion; parameters: species or system rat; settings: MB 0.7 μM, TTM 0.8 μM, D-PA 2.2 μM, TETA 1.8 μM
Experimental: LPP−/− livers (animal age 79-83 days) were perfused in a single pass manner with Krebs-Ringer bicarbonate solution containing 5 mM glucose (Beuers et al., J Biol Chem 278, 17810-17818 (2003)). The medium was gassed with 95% O2/5% CO2 and kept at 37° C. Rat livers were perfused via the portal vein (Beuers et al., log. cit.), the right lateral liver lobe was ligated and its copper content served as pre-perfusion control (Beuers et al., Hepatology 33, 1206-1216 (2001)). After cannulation of the bile duct a 20 min sample of bile was collected before the copper chelators were continuously added to the perfusion medium. Bile and outflow perfusate were collected in 10 min intervals as described elsewhere (Beuers et al., log. cit.). D-PA*HCl (20 mg/108 μmol), TETA*2HCl (20 mg/91 μmol), TTM*2NH4 (10 mg/38 μmol) and MB (40 mg/35 μmol) were each dissolved in 50 ml 0.9% NaCl, and continuously added to the perfusion medium via a perfusion pump (Perfusor, Braun, Melsungen) within 2 hours. The molar ratios of the chelators applied was MB 1:D-PA 3.1:TETA 2.6:TTM 1.1. LDH in the outflow perfusate was measured every ten minutes as described (Beuers et al., log. cit.). Control perfusions were done with Krebs-Ringer bicarbonate solution only.

LPP−/− rats = test: Short-term in vivo treatment of LPP−/− rats; parameters: species or system rat; settings: MB i.p. 3 or 5 days; D-PA or TETA 4 days
Experimental: LPP rats were treated with MB either by daily i.p. injections for 3 or 5 consecutive days, or twice daily i.p. injections for 8 consecutive days at a dose of 150 mg/kg bw or 4 days via the drinking water with D-PA at a dose of 100 mg/kg bw/d or TETA at 480 mg/kg bw/d, respectively (Togashi et al., Hepatology 15, 82-87 (1992)). Based on a mean copper content of 250 μg/g w.w. in Atp7b−/− rat livers at the age of treatment start (Zischka et al., log. cit.), a LPP−/− rat liver of 8 g w.w. contains around 31.5 μmol copper. Single MB doses were chosen equimolar to this copper amount. […] Assuming 40 ml water intake per day for a rat weighing 250 g this translates to a dose of 480 mg/kg bw/d. With respect to the mean liver copper content in LPP−/− rats aged 85 days, the molar ratios of the chelators applied was MB 1:D-PA 4.3:TETA 17.4, respectively. For the intravenous MB application (150 mg/kg bw), catheters connected to a PinPort™ (Instech Laboratories, Inc., USA) were inserted in the femoral vein of the rat, fixed with non-absorbable sutures and subcutaneously tunneled and exteriorized through a skin incision made between the shoulders.
Formalin-fixed, paraffin-embedded liver samples were cut into 4 μm-thick sections and either stained with hematoxylin and eosin for standard analyses or with Masson trichrome for analysis of fibrotic tissue. AST activity and bilirubin concentration in animal plasma or serum were measured with a Reflotron system (Roche).
Copper in liver homogenates, cell lysates and mitochondrial preparations were analyzed by ICP-OES (Ciros Vision, SPECTRO Analytical Instruments GmbH) after wet ashing of samples with 65% nitric acid (Zischka et al., log. cit.).
The efficiency of a short-term MB treatment schedule was assessed in LPP−/− rats at the age of liver disease onset (85-90 days). Animals received MB (i.p.) either for 3 or 5 days or the clinically used copper chelators D-PA or TETA, which were orally administered for 4-days.

LEC rats = settings: 100 mg/kg bw/d via drinking water, long-term; cited from earlier work
LPP−/− mitochondria = test: Chelator treatment of freshly isolated copper burdened LPP−/− mitochondria (copper extraction); parameters: species or system rat; settings: 30 min incubation

Compound: CC(C)(S)[C@@H](N)C(=O)O.Cl [D-PA, D-penicillamine*HCl, reference compound]
- copper released into bile (LPP−/− livers): did not provoke any detectable release of copper into the bile; also recorded: did not bring copper into bile
- mitochondrial copper (LPP−/− rats): No copper reduction
- serum AST levels (LPP−/− rats): unable to avoid the increase of serum AST levels
- whole liver copper (LPP−/− rats): No copper reduction
- onset of hepatitis (LEC rats): successfully prevent the onset of hepatitis

Compound: NCCNCCNCCN [TETA, trientine*2 HCl, reference compound]
- copper released into bile (LPP−/− livers; HCl): did not provoke any detectable release of copper into the bile; also recorded: did not bring copper into bile
- mitochondrial copper (LPP−/− rats): No copper reduction
- serum AST levels (LPP−/− rats): unable to avoid the increase of serum AST levels
- whole liver copper (LPP−/− rats): No copper reduction

Compound: CC(NC(=O)C(C)NC(=S)C1N=C(C(NC(=O)C(CO)NC(=O)C(C)NC(=S)C2N=C(C(=O)CCCNC(=N)N)NC2=O)C(C)OS(=O)(=O)O)OC1=O)C(=O)O (centres unmarked) [mb-SB2]
- copper depletion from LPP−/− mitochondria (LPP−/− mitochondria; 1 mM, mitochondria from three LPP−/− rats, vs buffer treated control): depletes copper at least as effective as another MB peptide mb-OB3b; also recorded: decreased at least as effective as the MB peptide mb-OB3b

Compound: tetrathiomolybdate*2 NH4 [TTM]
- copper associated with LPP−/− mitochondria (LPP−/− mitochondria; 2 mM each): rapidly decreased copper
